Data: patent publication US20260262643A1, “HERBICIDAL BENZOXAZINES” (FMC CORPORATION, priority 2022, published 2026)

Columns and labels:
[1] = test system: blackgrass; test: Test C preemergence; type: in vivo, Alopecurus myosuroides
Method in brief: (§1)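 Greenhouse herbicide screen, 10-day duration. Test chemicals in solvent/surfactant blend were sprayed onto soil at sowing (pre) or onto 2–10 cm seedlings at one to two leaves (post); injury scored visually against controls, 0 no effect to 100 complete control.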

[2] = test system: pigweed, palmer; test: Test C postemergence; type: in vivo, Amaranthus palmeri; conditions: 10 days, 0 to 100 scale (0 no effect, 100 complete control)
Method in brief: as §1

[3] = test system: corn; test: Test C postemergence; type: in vivo, Zea mays; conditions: 10 days, 0 to 100 scale (0 no effect, 100 complete control)
Method in brief: as §1

[4] = test system: wheat; test: Test C postemergence; type: in vivo, Triticum aestivum; conditions: 10 days, 0 to 100 scale (0 no effect, 100 complete control)
Method in brief: as §1

[5] = test system: corn; test: Test C preemergence; type: in vivo, Zea mays
Method in brief: as §1

[6] = test system: green foxtail; test: Test C preemergence; type: in vivo, Setaria viridis
Method in brief: as §1

[7] = test system: soybean; test: Test C postemergence; type: in vivo, Glycine max; conditions: 10 days, 0 to 100 scale (0 no effect, 100 complete control)
Method in brief: as §1

[8] = test system: pigweed, palmer; test: Test C preemergence; type: in vivo, Amaranthus palmeri
Method in brief: as §1

[9] = test system: kochia; test: Test C preemergence; type: in vivo, Bassia scoparia
Method in brief: as §1

[10] = test system: ryegrass, Italian; test: Test C postemergence; type: in vivo, Lolium multiflorum; conditions: 10 days, 0 to 100 scale (0 no effect, 100 complete control)
Method in brief: as §1

[11] = test system: wheat; test: Test C preemergence; type: in vivo, Triticum aestivum
Method in brief: as §1

[12] = test system: sedge, umbrella; test: Test D flooded paddy test; type: in vivo, Cyperus difformis; conditions: 250 g ai/ha, applied to paddy water, visual rating after 13 to 14 days, scale 0 to 100 (0 no effect, 100 complete control)
Method in brief: (§2)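 Compounds go straight into paddy water over 2-leaf plants in pots flooded to 3 cm. Greenhouse holding lasts 13 to 14 days. Injury is scored by eye against controls from 0 (none) to 100 (complete control).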

[13] = test system: ryegrass, Italian; test: Test C preemergence; type: in vivo, Lolium multiflorum
Method in brief: as §1

[14] = test system: ragweed; test: Test C postemergence; type: in vivo, Ambrosia artemisiifolia; conditions: 10 days, 0 to 100 scale (0 no effect, 100 complete control)
Method in brief: as §1

[15] = test system: oat, wild; test: Test C postemergence; type: in vivo, Avena fatua; conditions: 10 days, 0 to 100 scale (0 no effect, 100 complete control)
Method in brief: as §1

[16] = test system: blackgrass; test: Test C postemergence; type: in vivo, Alopecurus myosuroides; conditions: 10 days, 0 to 100 scale (0 no effect, 100 complete control)
Method in brief: as §1

[17] = test system: soybean; test: Test C preemergence; type: in vivo, Glycine max
Method in brief: as §1

[18] = test system: green foxtail; test: Test C postemergence; type: in vivo, Setaria viridis; conditions: 10 days, 0 to 100 scale (0 no effect, 100 complete control)
Method in brief: as §1

[19] = test system: barnyardgrass; test: Test C preemergence; type: in vivo, Echinochloa crusgalli
Method in brief: as §1

[20] = test system: barnyardgrass; test: Test D flooded paddy test; type: in vivo, Echinochloa crus-galli; conditions: 250 g ai/ha, applied to paddy water, visual rating after 13 to 14 days, scale 0 to 100 (0 no effect, 100 complete control)
Method in brief: as §2

[21] = test system: horseweed; test: Test C postemergence; type: in vivo, Erigeron canadensis; conditions: 10 days, 0 to 100 scale (0 no effect, 100 complete control)
Method in brief: as §1

[22] = test system: rice; test: Test D flooded paddy test; type: in vivo, Oryza sativa; conditions: 250 g ai/ha, applied to paddy water, visual rating after 13 to 14 days, scale 0 to 100 (0 no effect, 100 complete control)
Method in brief: as §2

[23] = test system: ragweed; test: Test C preemergence; type: in vivo, Ambrosia artemisiifolia
Method in brief: as §1

[24] = test system: kochia; test: Test C postemergence; type: in vivo, Bassia scoparia; conditions: 10 days, 0 to 100 scale (0 no effect, 100 complete control)
Method in brief: as §1

[25] = test system: barnyardgrass; test: Test C postemergence; type: in vivo, Echinochloa crusgalli; conditions: 10 days, 0 to 100 scale (0 no effect, 100 complete control)
Method in brief: as §1

[26] = test system: ducksalad; test: Test D flooded paddy test; type: in vivo, Heteranthera limosa; conditions: 250 g ai/ha, applied to paddy water, visual rating after 13 to 14 days, scale 0 to 100 (0 no effect, 100 complete control)
Method in brief: as §2

[27] = test system: oat, wild; test: Test C preemergence; type: in vivo, Avena fatua
Method in brief: as §1

[28] = test system: galium; test: Test C postemergence; type: in vivo, Galium aparine; conditions: 10 days, 0 to 100 scale (0 no effect, 100 complete control)
Method in brief: as §1

[29] = 500 g ai/ha, preemergence, 0 to 100 scale (0 no effect, 100 complete control)
[30] = Preemergence, 125 g ai/ha, 0 to 100 scale, 0 no effect, 100 complete control

With `CCOC[C@H]1CN(C(=O)c2cc(-n3cnc(C4CCC4)n3)cc3c2OCCO3)c2cccc(Cl)c2O1` [Compound 386] the “Blackgrass plant response rating” value [1, 29] was 0, the “Plant response rating, Blackgrass” value [1, 30] was 0 and the “Plant response rating, Pigweed, Palmer” value ([2]; 500 g ai/ha, postemergence) was 100. The “Plant response rating, Pigweed, Palmer” value ([2]; Postemergence, 125 g ai/ha) was 80, the “Plant response rating, Corn” value ([3]; 500 g ai/ha, postemergence) was 20 and the “Plant response rating, Corn” value ([3]; Postemergence, 125 g ai/ha) was 10. The “Plant response rating, Wheat” value ([4]; 500 g ai/ha, postemergence) was 10, the “Plant response rating, Wheat” value ([4]; Postemergence, 125 g ai/ha) was 10 and the “Corn plant response rating” value [5, 29] was 20. The “Plant response rating, Corn” value [5, 30] was 0, the “Foxtail, Green plant response rating” value [6, 29] was 90 and the “Plant response rating, Foxtail, Green” value [6, 30] was 40. For the same compound, the “Plant response rating, Soybean” value ([7]; 500 g ai/ha, postemergence) was 100, the “Plant response rating, Soybean” value ([7]; Postemergence, 125 g ai/ha) was 100 and the “Pigweed, Palmer plant response rating” value [8, 29] was 100. The “Plant response rating, Pigweed, Palmer” value [8, 30] was 100, the “Kochia plant response rating” value [9, 29] was 70 and the “Plant response rating, Kochia” value [9, 30] was 70. For the same compound, the “Plant response rating, Ryegrass, Italian” value ([10]; 500 g ai/ha, postemergence) was 60, the “Plant response rating, Ryegrass, Italian” value ([10]; Postemergence, 125 g ai/ha) was 40 and the “Wheat plant response rating” value [11, 29] was 0. For the same compound, the “Plant response rating, Wheat” value [11, 30] was 0, the “Plant response rating, Sedge, Umbrella (Flood)” value [12] was 0 and the “Ryegrass, Italian plant response rating” value [13, 29] was 80. The “Plant response rating, Ryegrass, Italian” value [13, 30] was 50, the “Plant response rating, Ragweed” value ([14]; 500 g ai/ha, postemergence) was 80 and the “Plant response rating, Ragweed” value ([14]; Postemergence, 125 g ai/ha) was 50. The “Plant response rating, Oat, Wild” value ([15]; 500 g ai/ha, postemergence) was 0, the “Plant response rating, Oat, Wild” value ([15]; Postemergence, 125 g ai/ha) was 0 and the “Plant response rating, Blackgrass” value ([16]; 500 g ai/ha, postemergence) was 50. The “Plant response rating, Blackgrass” value ([16]; Postemergence, 125 g ai/ha) was 0, the “Soybean plant response rating” value [17, 29] was 100 and the “Plant response rating, Soybean” value [17, 30] was 50. The “Plant response rating, Foxtail, Green” value ([18]; 500 g ai/ha, postemergence) was 50, the “Plant response rating, Foxtail, Green” value ([18]; Postemergence, 125 g ai/ha) was 10 and the “Barnyardgrass plant response rating” value [19, 29] was 70. For the same compound, the “Plant response rating, Barnyardgrass” value [19, 30] was 40, the “Plant response rating, Barnyardgrass (Flood)” value [20] was 0 and the “Plant response rating, Horseweed” value ([21]; 500 g ai/ha, postemergence) was 60. For the same compound, the “Plant response rating, Horseweed” value ([21]; Postemergence, 125 g ai/ha) was 30, the “Plant response rating, Rice (Flood)” value [22] was 0 and the “Ragweed plant response rating” value [23, 29] was 80. For the same compound, the “Plant response rating, Ragweed” value [23, 30] was 20, the “Plant response rating, Kochia” value ([24]; 500 g ai/ha, postemergence) was 90 and the “Plant response rating, Kochia” value ([24]; Postemergence, 125 g ai/ha) was 80. For the same compound, the “Plant response rating, Barnyardgrass” value ([25]; 500 g ai/ha, postemergence) was 30, the “Plant response rating, Barnyardgrass” value ([25]; Postemergence, 125 g ai/ha) was 20 and the “Plant response rating, Ducksalad (Flood)” value [26] was 0. For the same compound, the “Oat, Wild plant response rating” value [27, 29] was 40, the “Plant response rating, Oat, Wild” value [27, 30] was 30 and the “Plant response rating, Galium” value ([28]; 500 g ai/ha, postemergence) was 100. For the same compound, the “Plant response rating, Galium” value ([28]; Postemergence, 125 g ai/ha) was 100.
